In PMC7366379 (Journal of the American Chemical Society, 2020):
“And” between values parts separate entries of the source, which are not always exact repeats. Equal entries are not always repeated. Where two headings read alike, the source gives them in different places. Side chains are listed from the residue outwards. Ends that are not written are not given here. Peptide text beside a SMILES is read from it. * marks the point of attachment. Biotin = O=C1N[C@H]2[C@H](CS[C@H]2CCCCC(=O)*)N1

Experiments:
[1] = molecular target: T1, OmpF (Escherichia coli, UniProt P02931); format: binding; parameters: made in house; host or cells: E. coli BZB1107 (ompF-, ompC-), plasmid pNGH72; settings: for k1 / k2 / k3 / k–1 / k–2 / k–3: extrapolated to 0 mV; for k1: DPhPC bilayer, 20 mM potassium phosphate pH 6.4, 0.1 M KCl, 20.5 °C, at least three independent experiments; for k2 / k3 / k–1 / k–2 / k–3: pH 6.4, 0.1 M KCl
T1 sequence (P02931 23-362): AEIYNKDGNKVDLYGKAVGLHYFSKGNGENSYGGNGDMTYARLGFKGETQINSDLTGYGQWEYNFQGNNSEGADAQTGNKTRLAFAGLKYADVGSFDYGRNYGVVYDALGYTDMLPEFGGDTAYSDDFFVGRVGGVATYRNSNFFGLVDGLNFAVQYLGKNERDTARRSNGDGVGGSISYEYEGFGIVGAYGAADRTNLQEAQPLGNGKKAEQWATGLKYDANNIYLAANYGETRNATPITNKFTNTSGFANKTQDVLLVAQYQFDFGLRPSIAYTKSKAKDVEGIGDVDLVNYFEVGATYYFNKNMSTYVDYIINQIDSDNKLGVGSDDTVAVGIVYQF

[2] = Solubility of IUTD constructs; format: physicochemical
[3] = molecular target: T1, OmpF
[4] = molecular target: OmpF (Escherichia coli) (UniProt P02931); experiment: ITC; settings: cited from earlier work
[5] = molecular target: OmpF porin trimer (outer-membrane protein F) (Escherichia coli) (UniProt P02931); experiment: single-channel electrical recording in planar lipid bilayer
[6] = molecular target: OmpF porin trimer (outer-membrane protein F) (Escherichia coli) (UniProt P02931); experiment: as above; remark: listed apart in the source
[7] = molecular target: OmpF porin trimer (outer-membrane protein F) (Escherichia coli) (UniProt P02931); experiment: single-channel electrical recording in planar lipid bilayer; single OmpF trimer in a DPhPC bilayer; binder added to the extracellular side; -100 mV (as stated for Figures 2, 3 and 5); 20 mM potassium phosphate pH 6.4, 0.1 M KCl, 20.5 °C
[8] = molecular target: AEDANS-labelled OBS1-fusion protein (colicin E9 OmpF-binding site 1 fused to a carrier) (UniProt P09883); experiment: stopped-flow FRET (OmpF tryptophans to AEDANS); settings: pH 6.5, 4 °C, no added salt stated (20 mM potassium phosphate only)
AEDANS-labelled OBS1-fusion protein (colicin E9 OmpF-binding site 1 fused to a carrier), sequence (P09883 whole entry, the tested form may be a part): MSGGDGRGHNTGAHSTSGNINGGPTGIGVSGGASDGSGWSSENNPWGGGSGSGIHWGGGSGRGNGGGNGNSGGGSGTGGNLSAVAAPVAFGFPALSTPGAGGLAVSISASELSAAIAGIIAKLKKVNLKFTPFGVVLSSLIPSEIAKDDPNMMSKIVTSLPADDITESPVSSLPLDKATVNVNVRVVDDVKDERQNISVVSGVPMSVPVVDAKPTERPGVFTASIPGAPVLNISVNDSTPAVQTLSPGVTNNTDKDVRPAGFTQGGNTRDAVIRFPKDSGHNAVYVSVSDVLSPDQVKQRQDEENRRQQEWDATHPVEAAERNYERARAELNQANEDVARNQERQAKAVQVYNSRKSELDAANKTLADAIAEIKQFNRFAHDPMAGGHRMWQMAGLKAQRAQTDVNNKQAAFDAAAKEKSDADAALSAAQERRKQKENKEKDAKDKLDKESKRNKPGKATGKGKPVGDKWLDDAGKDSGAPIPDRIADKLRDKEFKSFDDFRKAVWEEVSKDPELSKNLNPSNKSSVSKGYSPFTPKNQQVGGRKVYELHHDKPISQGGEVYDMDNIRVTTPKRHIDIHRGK

[9] = molecular target: T2, OmpF porin trimer (outer-membrane protein F) (Escherichia coli, UniProt P02931 23-362); experiment: single-channel electrical recording in planar lipid bilayer; single OmpF trimer in a DPhPC bilayer; free peptide added to the periplasmic (trans) side, positive potentials; constants of Table 1 extrapolated to 0 mV, Kd for a single OmpF subunit; 20 mM potassium phosphate pH 6.4, 0.1 M KCl, 20.5 °C; settings: both partners purified
T2 sequence (looked up): T1 sequence (P02931 23-362)

[10] = molecular target: T2, OmpF porin trimer (outer-membrane …); experiment: single-channel electrical recording in planar lipid bilayer; single OmpF trimer in a DPhPC bilayer; free peptide added to the extracellular (cis) side, negative potentials; constants of Table 1 extrapolated to 0 mV, Kd for a single OmpF subunit; 20 mM potassium phosphate pH 6.4, 0.1 M KCl, 20.5 °C; settings: both partners purified
[11] = molecular target: T3, OmpF porin trimer (E. coli, UniProt P02931 23-362); experiment: single-channel electrical recording in planar lipid bilayers; current-voltage plots (-100 to +100 mV) of individual OmpF pores before and after addition of the binder to the extracellular side; settings: both partners purified
T3 sequence (looked up): T1 sequence (P02931 23-362)

[12] = molecular target: T2, OmpF porin trimer (outer-membrane …); experiment: single-channel electrical recording in planar lipid bilayer; single OmpF trimer in a DPhPC bilayer; binder added to the extracellular side; -100 mV (as stated for Figures 2, 3 and 5); 20 mM potassium phosphate pH 6.4, 0.1 M KCl, 20.5 °C; settings: both partners purified
[13] = molecular target: T2, OmpF porin trimer (outer-membrane …); experiment: single-channel electrical recording in planar lipid bilayer; single OmpF trimer in a DPhPC bilayer; mSA-capped peptide added to the periplasmic side; +100 mV (where stated); 20 mM potassium phosphate pH 6.4, 0.1 M KCl, 20.5 °C; settings: both partners purified
[14] = molecular target: T3, OmpF porin trimer; experiment: single-channel electrical recording in planar lipid bilayers; OmpF trimer with two subunits already occluded by untagged IUTD (added to the extracellular side at -100 mV, rest removed by buffer exchange); 1 µM peptide then added to the periplasmic side at +50 mV; settings: both partners purified
[15] = molecular target: T3, OmpF porin trimer; experiment: single-channel electrical recording in planar lipid bilayers; single OmpF trimer in a DPhPC bilayer; peptide added to the extracellular side; phosphate buffer pH 6.4, 100 mM KCl; rate constants at 0 mV by extrapolation from negative applied potentials; Kd for the OmpF monomer (k-1 divided by one-third of k1); settings: both partners purified
[16] = molecular target: T2, OmpF porin trimer (outer-membrane …); experiment: single-channel electrical recording in planar lipid bilayer; single OmpF trimer in a DPhPC bilayer; free peptide added to the extracellular (cis) side, negative potentials; constants of Table 1 extrapolated to 0 mV, Kd for a single OmpF subunit; 20 mM potassium phosphate pH 6.4, 0.1 M KCl, 20.5 °C; settings: both partners purified; remark: listed apart in the source
[17] = molecular target: T2, OmpF porin trimer (outer-membrane …); experiment: single-channel electrical recording in planar lipid bilayer; single OmpF trimer in a DPhPC bilayer; free peptide added to the periplasmic (trans) side, positive potentials; constants of Table 1 extrapolated to 0 mV, Kd for a single OmpF subunit; 20 mM potassium phosphate pH 6.4, 0.1 M KCl, 20.5 °C; settings: both partners purified; remark: listed apart in the source
[18] = peptide from the periplasmic side, ± s.d., at least three experiments
[19] = peptide from the extracellular side, ± s.d., at least three experiments

In the case of C[C@H](NC(=O)CNC(=O)[C@@H](NC(=O)[C@H](CC(N)=O)NC(=O)[C@H](Cc1c[nH]cn1)NC(=O)CNC(=O)[C@H](CCCNC(=N)N)NC(=O)CNC(=O)[C@H](CC(=O)O)NC(=O)CNC(=O)CNC(=O)[C@@H](N)CO)[C@@H](C)O)C(=O)N[C@@H](Cc1c[nH]cn1)C(=O)N[C@@H](CO)C(=O)N[C@H](C(=O)N[C@@H](CO)C(=O)NCC(N)=O)[C@@H](C)O [OBS1_2–18] (H-SGGDGRGHNTGAHSTSG-NH2), the k1 ([1]; peptide from the periplasmic side, ± s.d.) is reported as 9.6 ± 0.60 10^6 M^–1 s^–1, the k2 [1, 18] is reported as 6.1 ± 0.42 10^6 M^–1 s^–1 and the k3 [1, 18] is reported as 3.2 ± 0.25 10^6 M^–1 s^–1. For the same molecule, the “k–1” value [1, 18] was 43 ± 1.5 s^–1, the “k–2” value [1, 18] was 78 ± 3.9 s^–1 and the “k–3” value [1, 18] was 111 ± 6.6 s^–1.

With CC[C@H](C)[C@H](NC(C)=O)C(=O)N[C@@H](Cc1c[nH]cn1)C(=O)N[C@@H](Cc1c[nH]c2ccccc12)C(=O)NCC(=O)NCC(=O)NCC(=O)N[C@@H](CO)C(=O)NCC(=O)N[C@@H](CCCNC(=N)N)C(=O)NCC(N)=O [OBS2_54–63] (Ac-IHWGGGSGRG-NH2) the “higher affinity from the periplasmic side than from the extracellular side” value ([1]; OBS2 peptide, PLB recording) was 200 times, the “slower dissociation when added to the periplasmic side than to the extracellular side” value ([1]; OBS2 peptide, PLB recording) was 4 orders of magnitude and the k1 ([1]; peptide from the extracellular side, ± s.d.) was 4.0 ± 0.60 10^6 M^–1 s^–1. The k3 ([1]; peptide from the extracellular side, fewer events (<100), error relatively large) was 0.97 ± 0.50 ^b 10^6 M^–1 s^–1, the k2 [1, 19] was 2.2 ± 0.64 10^6 M^–1 s^–1 and the “k–1” value [1, 19] was 1.3 ± 0.10 × 10^4 s^–1. For the same molecule, the “k–2” value [1, 19] was 2.5 ± 0.34 × 10^4 s^–1 and the “k–3” value [1, 19] was 3.2 ± 0.47 × 10^4 s^–1.

With ColE9_2–83-ENLYFQ [IUTD] the solubility [2] was at most 5 µM, the “k12′ (rebinding)” value [3] was “≈ 10^3 s^–1” and the “Association with a first subunit: k01” value ([3]; SD) was 6.3 ± 1.9 104 M-1s-1 and 10 ± 4.1 104 M-1s-1. The “Initial binding of the OBS1 sequence to a second subunit: k12” value ([3]; SD) was 58 ± 13 s⁻¹ and 38 ± 17 s⁻¹, the “Rebinding of the OBS1 sequence to a second subunit: k12’” value ([3]; SD) was 2200 ± 270 s⁻¹ and 1400 ± 340 s⁻¹ and the “Unbinding of the OBS1 sequence from the second subunit: k21” value ([3]; SD) was 2.6 ± 1.1 s⁻¹ and 3.4 ± 0.7 s⁻¹. The “k01, association with the first OmpF subunit” value ([3]; pH 6.4) was “≈ 10^4 M^–1 s^–1”, the “k12, initial binding of OBS1 to the second OmpF subunit” value ([3]; pH 6.4) was “≈ 10 ^2 s^–1” and the “occlusion of OmpF subunits after addition to the extracellular side (in words)” value ([3]; pH 6.4) was “sequential occlusion of two OmpF subunits”.

For “Colicin E9 OBS1 2-18 (from UniProt P09883)”, the Kd [4] is listed as 1.8 µM.

In the case of “Colicin E9 OBS2 54-63 (from UniProt P09883)”, the Kd [4] is given as 24 µM.

With “IUTD-fusion (ColE9_(1–83)-TEV-E9 DNase·Im9His6) (from UniProt P09883 1-83; P13479 1-86) (complex)” the k01 (association with the first subunit, at 0 mV) [5] was 9800 M⁻¹ s⁻¹, the other [5] was 181 s⁻¹ and the k21' (unbinding of OBS1 from the second subunit, at 0 mV) [6] was 3.9 s⁻¹. It also gave an other [6] of 5300 s⁻¹, an effective molarity (EM) [7] of 0.9 mM and a koff (failed attempts at threading during the latency) [7] of 300 s⁻¹.

With OmpF porin (outer membrane protein F) the “k1 (association rate constant)” value [8] was 9.80 ± 0.31 μM^–1 s^–1 and the “k–1 (dissociation rate constant)” value [8] was 3.22 ± 0.03 s^–1.

B1: OBS2_(54-63) peptide (acetyl-OBS2_(54-63)-CONH2) (peptide)
peptide: Ac-IHWGGGSGRG-NH2
B1 gave a Kd [9] of 60 µM and a Kd [10] of 11000 µM.

B2: untagged IUTD (ColE9_(2-83)-ENLYFQ) (domain or fragment)
chain: SGGDGRGHNTGAHSTSGNINGGPTGIGVSGGASDGSGWSSENNPWGGGSGSGIHWGGGSGRGNGGGNGNSGGGSGTGGNLSAENLYFQ
B2: binds [11].

B3: free IUTD (ColE9_(2–83)-ENLYFQ) (domain or fragment)
chain: B2 chain
B3: binds [12].

B4: OBS1–mSA (OBS1_(2-18)-Linker-Cys-HPDP-Biotin bound to monovalent streptavidin) (peptide)
peptide: SGGDGRGHNTGAHSTSGSSGGSSGGSSGGC([HPDP-Biotin])
modifications: also: bound to monovalent streptavidin
B4 gave a koff [13] of about 600 s⁻¹ and a kon [13] of about 5e+06 M⁻¹ s⁻¹.

B5: mSA–OBS2 (Biotin-HPDP-Cys-Linker-OBS2_(54-63) bound to monovalent streptavidin) (peptide)
peptide: C([HPDP-Biotin])GGSSGGSSGGSSIHWGGGSGRG
modifications: also: bound to monovalent streptavidin
B5: binds [13].

B6: OBS1_(2-26) peptide (NH2-OBS1_(2-26)-CONH2) (peptide, UniProt P09883 2-26, looked up)
peptide: SGGDGRGHNTGAHSTSGNINGGPTG-NH2
B6: binds [14].

B7: OBS1_(2-18) peptide (NH2-OBS1_(2-18)-CONH2) (peptide)
peptide: SGGDGRGHNTGAHSTSG-NH2
Molecule B7 has a Kd [15] of 5400 µM.

B8: OBS1_(2-18) peptide (NH2-OBS1_(2-18)-CONH2) (peptide)
peptide: H-SGGDGRGHNTGAHSTSG-NH2
B8 gave a Kd [16] of 5000 µM and a Kd [17] of 13 µM.
